Patent US20110207726A1, “Inhibitors of Human Cathepsin L, Cathepsin B, and Cathepsin S” (The Trustees of the University of Pennsylvania, priority 2008, published 2011)
Like-named read-outs stand apart in the source and are kept apart here.

Assays:
Assay type in all cases: biochemical
[1] = biological target: T1, human liver cathepsin L (Homo sapiens, UniProt P07711); test: Cathepsin L assay, IC50 determination
T1 construct: 8.7 ng/mL human liver cathepsin L (Calbiochem 219402); purchased Calbiochem 219402; host or cells: human liver
T1 sequence (P07711 114-288 limits assumed): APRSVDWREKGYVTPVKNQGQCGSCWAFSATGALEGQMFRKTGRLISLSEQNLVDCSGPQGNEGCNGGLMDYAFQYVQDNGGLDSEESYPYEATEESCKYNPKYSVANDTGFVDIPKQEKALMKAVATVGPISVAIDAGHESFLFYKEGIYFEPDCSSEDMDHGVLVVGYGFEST
T1 sequence (P07711 292-333 limits assumed): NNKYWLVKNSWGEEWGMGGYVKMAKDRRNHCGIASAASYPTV
Procedure: Assay buffer consisted of 20 mM sodium acetate, 1 mM ethylenediaminetetraacetic acid (EDTA) and 5 mM cysteine, pH 5.5. Cathepsin L was incubated in assay buffer for 30 minutes prior to dispensing into wells to allow for efficient reduction of the active site cysteine required for full enzymatic activity.
Upon activation, cathepsin L (300 pM, 8.7 ng/mL) was incubated with 1 microM Z-Phe-Arg-AMC substrate (Sigma C9521) and test compound in […] of assay buffer for 1 hour at room temperature.
All reactions were performed in 20 mM sodium acetate buffer containing 5 mM cysteine and 1 mM EDTA, pH 5.5. Reaction progress was monitored using the Envision microplate reader. IC50 values were measured in triplicate.

[2] = biological target: T2, Human spleen cathepsin S (Homo sapiens, UniProt P25774); test: Cathepsin S assay, IC50 determination; details: Table 1; read-out: IC50 Cat S
T2 construct: Human spleen cathepsin S (Calbiochem 219344, 40 ng/mL); purchased Calbiochem 219344; host or cells: human spleen
T2 sequence (P25774 115-331): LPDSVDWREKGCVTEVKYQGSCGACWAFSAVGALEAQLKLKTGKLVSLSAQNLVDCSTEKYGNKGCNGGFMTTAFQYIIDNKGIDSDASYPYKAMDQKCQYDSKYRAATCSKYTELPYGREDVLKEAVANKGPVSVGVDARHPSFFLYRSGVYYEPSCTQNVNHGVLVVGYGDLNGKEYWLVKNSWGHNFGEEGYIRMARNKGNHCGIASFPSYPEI
Procedure: (§1) Human spleen cathepsin S (Calbiochem 219344, 40 ng/mL) was assayed using 15 microM Z-Phe-Arg-AMC substrate. Human liver cathepsin B (Calbiochem 219362, 65 ng/mL) was assayed using 15 microM Z-Arg-Arg-AMC substrate (Bachem I-1135). All reactions were performed in 20 mM sodium acetate buffer containing 1 mM EDTA and 5 mM cysteine, pH 5.5.
(§2) Compounds were serially diluted in DMSO and transferred into a 96-well Corning 3686 assay microplate to give a 16-point two-fold serial dilution dose response ranging from 25 microM to 760 pM. Human liver cathepsin L (Calbiochem 219402) was activated by incubating with assay buffer for 30 min. Upon activation, cathepsin L (300 pM, 8.7 ng/mL) was incubated with 1 microM Z-Phe-Arg-AMC substrate (Sigma C9521) and test compound in […] of assay buffer for 1 hour at room temperature. Fluorescence of AMC released by enzyme-catalyzed hydrolysis of Z-Phe-Arg-AMC was read on a PerkinElmer Envision microplate reader (excitation 355 nm, emission 460 nm). Data were scaled using internal controls and fitted to a four-parameter logistic model (IDBS XLfit equation 205) to obtain IC50 values in triplicate.
(§3) Compound No. 1 was assayed for inhibition against papain and cathepsins B, G, K, S, and V. Papain from Carica papaya (Calbiochem 5125, 11 ng/mL), human cathepsin K (Calbiochem 342001, 35 ng/mL), human spleen cathepsin S (Calbiochem 219344, 40 ng/mL), and human cathepsin V (Calbiochem 219467, 39 ng/ml) were assayed using Z-Phe-Arg-AMC substrate at 20 μM, 20 μM, 15 μM, and 1 μM, respectively. Human liver cathepsin B (Calbiochem 219362, 65 ng/mL) was assayed using 15 μM Z-Arg-Arg-AMC substrate (Bachem I-1135). Human neutrophil cathepsin G (Calbiochem 219373, 4.2 μg/mL) was assayed using 15 μM Suc-Ala-Ala-Pro-Phe-AMC substrate (Sigma S9761). All reactions were performed in 20 mM sodium acetate buffer containing 5 mM cysteine and 1 mM EDTA, pH 5.5. Reaction progress was monitored using the Envision microplate reader. IC50 values were measured in triplicate.

[3] = biological target: T3, Human liver cathepsin B (Homo sapiens, UniProt P07858); test: Cathepsin B assay, IC50 determination; details: Table 1; read-out: IC50 Cat B
T3 construct: Human liver cathepsin B (Calbiochem 219362, 65 ng/mL); purchased Calbiochem 219362; host or cells: human liver
Procedure: as §1, §2, §3

[4] = Table 17, n = 3, C, S or O at the sulfur position, read-out: Cathepsin L inhibitory activity IC50

SMILES	IC50 [1, 4] [nM]	cathepsin L inhibitory activity (in words) [1]	IC50 [2] [nM]	IC50 [3] [nM]	IC50 ([1]; Table 1, read-out: IC50 Cat L) [nM]	IC50 ([1]; read-out: IC50 against cathepsin L) [nM]
CCc1ccccc1NC(=O)COC(=O)NNC(=O)C(Cc1c[nH]c2ccccc12)NC(=O)OC(C)(C)C (stereo not shown) [2-ethylanilide O]	28 ± 4	–	–	–	–	–
CCc1ccccc1NC(=O)CSc1nnc([C@@H](N)Cc2c[nH]c3ccccc23)o1 [Compound (ii)]	–	completely devoid of activity	–	–	–	–
CC(C)(C)OC(=O)N[C@@H](Cc1c[nH]c2ccccc12)C(=O)NNC(=O)SCC(=O)N1CCCc2ccccc21 [Compound No. 5]	–	–	930	4460	96	–
CC(C)(C)OC(=O)N[C@@H](Cc1c[nH]c2ccccc12)C(=O)NNC(=O)SCC(=O)NCCc1ccccc1 [Compound No. 7]	–	–	320	6590	29	–
CCOC(=O)c1cccc(NC(=O)CSC(=O)NNC(=O)[C@H](Cc2c[nH]c3ccccc23)NC(=O)OC(C)(C)C)c1 [Compound No. 8]	–	–	680	> 25000	62	–
CCOC(=O)c1ccc(NC(=O)CSC(=O)NNC(=O)[C@H](Cc2c[nH]c3ccccc23)NC(=O)OC(C)(C)C)cc1 [Compound No. 9]	–	–	580	> 25000	57	–
CC(C)(C)OC(=O)N[C@@H](Cc1c[nH]c2ccccc12)C(=O)NNC(=O)SCC(=O)N1CCOc2ccccc21 [Compound No. 10]	–	–	950	3230	220	–
CC(C)(C)OC(=O)N[C@@H](Cc1c[nH]c2ccccc12)C(=O)NNC(=O)SCC(=O)N1CCc2ccccc2C1 [Compound No. 12]	–	–	530	3250	19	–
CC(C)(C)OC(=O)N[C@@H](Cc1c[nH]c2ccccc12)C(=O)NNC(=O)SCC(=O)N1CCc2ccc(Br)cc2C1c1ccccc1 (stereo partly shown) [Compound No. 13]	–	–	2900	> 25000	1030	–
CC(C)(C)OC(=O)N[C@@H](Cc1c[nH]c2ccccc12)C(=O)NNC(=O)SC1CCN(c2ccccc2)C1=O (stereo partly shown) [Compound No. 14]	–	–	2070	14000	1050	–
COC(=O)CSC(=O)NNC(=O)[C@H](Cc1c[nH]c2ccccc12)NC(=O)OC(C)(C)C [Compound No. 15]	–	–	570	6330	98	–
CCc1ccccc1NC(=O)CSC(=O)NNC(=O)[C@@H](Cc1c[nH]c2ccccc12)NC(=O)OC(C)(C)C [Compound No. 16]	–	–	> 25000	> 25000	> 25000	–
CCc1ccccc1NC(=O)CSC(=O)NNC(=O)[C@H](CCSC)NC(=O)OC(C)(C)C [Compound No. 17]	–	–	690	2030	1290	–
CSCC[C@H](NC(=O)OC(C)(C)C)C(=O)NNC(=O)SCC(=O)N1CCCc2ccccc21 [Compound No. 18]	–	–	630	2210	1340	–
CSCC[C@H](NC(=O)OC(C)(C)C)C(=O)NNC(=O)SCC(=O)N1CCc2ccccc2C1 [Compound No. 19]	–	–	410	2310	520	–
CSCC[C@H](NC(=O)OC(C)(C)C)C(=O)NNC(=O)SCC(=O)NCCc1c[nH]c2ccccc12 [Compound No. 20]	–	–	310	2420	330	–
CCc1ccccc1NC(=O)CSC(=O)NNC(=O)[C@@H](NC(=O)OC(C)(C)C)C(C)C [Compound No. 21]	–	–	3740	870	660	–
CC(C)[C@H](NC(=O)OC(C)(C)C)C(=O)NNC(=O)SCC(=O)N1CCCc2ccccc21 [Compound No. 22]	–	–	4240	630	680	–
CC(C)[C@H](NC(=O)OC(C)(C)C)C(=O)NNC(=O)SCC(=O)N1CCc2ccccc21 [Compound No. 23]	–	–	7240	440	450	–
CC(C)[C@H](NC(=O)OC(C)(C)C)C(=O)NNC(=O)SCC(=O)Nc1ccc2c(c1)CCCC2 [Compound No. 24]	–	–	620	> 25000	110	–

SMILES	IC50 [1, 4] [nM]	cathepsin L inhibitory activity (in words) [1]	IC50 [2] [nM]	IC50 [3] [nM]	IC50 ([1]; Table 1, read-out: IC50 Cat L) [nM]	IC50 ([1]; read-out: IC50 against cathepsin L) [nM]
CCc1ccccc1NC(=O)CSC(=O)NNC(=O)[C@H](C)NC(=O)OC(C)(C)C [Compound No. 25]	–	–	> 25000	> 25000	≥ 25000	–
C[C@H](NC(=O)OC(C)(C)C)C(=O)NNC(=O)SCC(=O)N1CCCc2ccccc21 [Compound No. 26]	–	–	> 25000	> 25000	≥ 25000	–
CCc1ccccc1NC(=O)CSC(=O)NNC(=O)[C@H](CCC(=O)O)NC(=O)OC(C)(C)C [Compound No. 27]	–	–	> 25000	> 25000	≥ 25000	–
CCc1ccccc1NC(=O)CSC(=O)NNC(=O)[C@H](CC(C)C)NC(=O)OC(C)(C)C [Compound No. 29]	–	–	1650	2630	1090	–
CCc1ccccc1NCCSC(=O)NNC(=O)[C@H](CC(C)C)NC(=O)OC(C)(C)C [Compound No. 30]	–	–	> 25000	> 25000	> 25000	–
CC(C)C[C@H](NC(=O)OC(C)(C)C)C(=O)NNC(=O)SCC(=O)N1CCCc2ccccc21 [Compound No. 31]	–	–	1640	2720	1640	–
CCc1ccccc1NC(=O)CSC(=O)NNC(=O)[C@@H]1CCCN1C(=O)OC(C)(C)C [Compound No. 32]	–	–	> 25000	> 25000	> 25000	–
CC(C)(C)OC(=O)N1CCC[C@H]1C(=O)NNC(=O)SCC(=O)N1CCCc2ccccc21 [Compound No. 33]	–	–	> 25000	> 25000	> 25000	–
CCc1ccccc1NCCSC(=O)NNC(=O)[C@H](Cc1ccccc1)NC(=O)OC(C)(C)C [Compound No. 35]	–	–	> 25000	> 25000	> 25000	–
CCc1ccccc1NC(=O)CSC(=O)NNC(=O)[C@H](Cc1ccc(OCc2ccccc2)cc1)NC(=O)OC(C)(C)C [Compound No. 36]	–	–	2830	5080	830	–
CC(C)(C)OC(=O)N[C@@H](Cc1ccc(OCc2ccccc2)cc1)C(=O)NNC(=O)SCC(=O)Nc1ccccc1[N+](=O)[O-] [Compound No. 38]	–	–	2080	2770	590	–
CC(C)(C)OC(=O)N[C@@H](Cc1ccc(OCc2ccccc2)cc1)C(=O)NNC(=O)SCC(=O)N1CCc2ccccc2C1 [Compound No. 39]	–	–	1310	3190	86	–
CC(C)(C)OC(=O)N[C@@H](Cc1ccc(OCc2ccccc2)cc1)C(=O)NNC(=O)SCC(=O)N1CCc2ccccc21 [Compound No. 40]	–	–	8000	3120	700	–
CC(C)(C)OC(=O)N[C@@H](Cc1ccc(OCc2ccccc2)cc1)C(=O)NNC(=O)SCC(=O)N1CCOc2ccccc21 [Compound No. 41]	–	–	3980	3030	1560	–
CCOC(=O)c1ccc(NC(=O)CSC(=O)NNC(=O)[C@H](Cc2ccc(OCc3ccccc3)cc2)NC(=O)OC(C)(C)C)cc1 [Compound No. 43]	–	–	1080	> 25000	140	–
CCc1ccccc1NC(=O)CSC(=O)NNC(=O)[C@@H](NC(=O)OC(C)(C)C)C(C)OCc1ccccc1 (stereo partly shown) [Compound No. 44]	–	–	3320	3670	13700	–
CC(OCc1ccccc1)[C@H](NC(=O)OC(C)(C)C)C(=O)NNC(=O)SCC(=O)N1CCCc2ccccc21 (stereo partly shown) [Compound No. 45]	–	–	5150	4350	> 25000	–
CCc1ccccc1NC(=O)CSC(=O)NNC(=O)[C@@H](Cc1c[nH]c2ccccc12)NC(=O)OC(C)(C)C [R-enantiomer of Compound No. 1]	–	–	–	–	–	34000
CC(C)(C)OC(=O)NC(Cc1c[nH]c2ccccc12)C(=O)NNC(=O)SCC(=O)N1CCCc2ccccc21 (stereo not shown) [Tetrahydroquinoline S]	41 ± 2	–	–	–	–	–
